Assay results reported in patent publication EP0082668A1, “5-(2-Halogenovinyl)-2'-deoxyuridine derivatives, processes for their preparation, pharmaceutical compositions containing them and their use in treating viral infections” (BEECHAM GROUP PLC, priority 1981, dated 1983).
Values joined by “and” are separate entries in the source; they are usually repeats but may differ in a detail not shown here. Identical values can stand only once. Like-named read-outs stand apart in the source and are kept apart here.

What was measured:
[1] = system: herpes simplex type 1 virus (HFEM strain); experiment: Plaque reduction test in Vero cells infected with herpes simplex type 1 virus; type: cell-based
Experimental: (§1) Vero (African Green Monkey Kidney) cells were grown to confluence in 6 well multidishes, each well being 3.5 cm in diameter. The cells were incubated with herpes simplex type 1 virus (HFEM strain) and overlaid with 0.5 mL of 0.9% agarose (w/v) in maintenance medium containing the test compound at a range of concentrations from 100 pg/mL in half-log dilution steps. The virus infected cultures were then incubated at 37°C for 6 days before fixing in 4% formaldehyde solution and staining with carbolfuchsin. The dishes were then examined to find the concentration of test compound causing a 50% reduction in the number of virus plaques formed (PDD50 value) and the minimum concentration of test compound which killed the cell monolayer, leaving a clear zone devoid of cells and virus plaques (MTD).

[2] = Minimum concentration killing the cell monolayer (MTD), read in the plaque reduction test; type: cell-based, African Green Monkey; conditions: monkey, vero cells; minimum concentration which killed the cell monolayer; virus infected Vero cultures, 6 days at 37°C
Experimental: as §1

[3] = Human alphaherpesvirus 1, 144 h, concentration causing a 50% reduction in the number of virus plaques, Vero cells, HFEM strain, 6 days at 37°C, molar, read-out: PDD50 (the source's name)
[4] = Human alphaherpesvirus 1, 144 h, concentration causing a 50% reduction in the number of virus plaques, Vero cells, HFEM strain, 6 days at 37°C, read-out: PDD50 (the source's name)
[5] = Human alphaherpesvirus 1, Vero, 144 h, read-out: PDD50

Structure (SMILES) | IC50 [1, 3] | IC50 [1, 4] | MCC at 144 h [2] | IC50 [1, 5]
O=C(OC[C@H]1O[C@@H](n2cc(/C=C/Br)c(=O)[nH]c2=O)C[C@@H]1OC(=O)c1ccccc1)c1ccccc1 [Example 2, E-5-(2-bromovinyl)-3',5'-di-O-benzoyl-2'-deoxyuridine] | 100000 nM | 54 µg/mL | > 100 µg/mL | 
O=C(OC[C@H]1O[C@@H](n2cc(/C=C/Br)c(=O)[nH]c2=O)C[C@@H]1O)c1ccccc1 [Example 3, 5'-O-benzoyl-E-5-(2-bromovinyl)-2'-deoxyuridine] | 3700 nM | 1.7 µg/mL | > 100 µg/mL | 
O=C(O[C@H]1C[C@H](n2cc(/C=C/Br)c(=O)n(C(=O)c3ccccc3)c2=O)O[C@@H]1CO)c1ccccc1 [Example 10, 3-N-Benzoyl-3'-O-benzoyl-E-5-(2-bromovinyl)-2'-deoxyuridine] | 3800 nM | 2.1 µg/mL | 100 µg/mL | 
O=C(O[C@H]1C[C@H](n2cc(/C=C/Br)c(=O)[nH]c2=O)O[C@@H]1CO)c1ccccc1 [Example 11, 3'-O-Benzoyl-E-5-(2-bromovinyl)-2'-deoxyuridine] | 3700 nM | 1.6 µg/mL | > 100 µg/mL | 
O=C(c1ccccc1)n1c(=O)c(/C=C/Br)cn([C@H]2C[C@H](O)[C@@H](CO)O2)c1=O [Example 12, 3-N-Benzoyl-E-5-(2-bromovinyl)-2'-deoxyuridine] | 530 nM | 0.23 µg/mL | 100 µg/mL | 
O=C(OC[C@H]1O[C@@H](n2cc(/C=C/Br)c(=O)[nH]c2=O)C[C@@H]1OC(=O)c1ccc(Cl)cc1)c1ccc(Cl)cc1 [Example 15, E-5-(2-Bromovinyl)-3',5'-di-O-p-chlorobenzoyl-2'-deoxyuridine] | 121000 nM | 74 µg/mL | > 100 µg/mL | 
O=C(Cc1ccccc1)OC[C@H]1O[C@@H](n2cc(/C=C/Br)c(=O)[nH]c2=O)C[C@@H]1OC(=O)Cc1ccccc1 [Example 17, E-5-(2-Bromovinyl)-3',5'-di-0-phenylacetyl-2'-deoxyuridine] |  |  | > 100 µg/mL | 3.9 µg/mL and 6.9 µM
O=C(OC[C@H]1O[C@@H](n2cc(/C=C/Br)c(=O)[nH]c2=O)C[C@@H]1O)c1ccc(Cl)cc1 [Example 18, E-5-(2-Bromovinyl)-5'-0-p-chlorobenzoyl-2'-deoxyuridine] | 1780 nM | 0.84 µg/mL | > 100 µg/mL | 
COc1ccc(C(=O)OC[C@H]2O[C@@H](n3cc(/C=C/Br)c(=O)[nH]c3=O)C[C@@H]2O)cc1 [Example 19, E-5-(2-Bromovinyl)-5'-p-methoxybenzoyl-2'-deoxyuridine] | 13500 nM | 6.3 µg/mL | 100 µg/mL | 
O=C(c1ccc(Cl)cc1)n1c(=O)c(/C=C/Br)cn([C@H]2C[C@H](O)[C@@H](CO)O2)c1=O [Example 20, E-5-(2-Bromovinyl)-3-N-p-chlorobenzoyl-2'-deoxyuridine] | 250 nM | 0.12 µg/mL | > 100 µg/mL | 
COc1ccc(C(=O)n2c(=O)c(/C=C/Br)cn([C@H]3C[C@H](O)[C@@H](CO)O3)c2=O)cc1 [Example 21, E-5-(2-Bromovinyl)-3-N-p-methoxybenzoyl-2'-deoxyuridine] | 540 nM | 0.25 µg/mL | > 100 µg/mL | 
C[Si](C)(C)OC[C@H]1O[C@@H](n2cc(/C=C/Br)c(=O)[nH]c2=O)C[C@@H]1O[Si](C)(C)C [Example 22, E-5-(2-Bromovinyl)-3',5'-bis-O-trimethylsilyl-2'-deoxyuridine] |  |  | > 100 µg/mL | 0.24 µg/mL and 500 nM
CCCCC(=O)n1c(=O)c(/C=C/Br)cn([C@H]2C[C@H](O)[C@@H](CO)O2)c1=O [Example 23, E-5-(2-Bromovinyl)-3-N-valeryl-2'-deoxyuridine] | 620 nM | 0.26 µg/mL | > 100 µg/mL | 
CC(C)(C)C(=O)n1c(=O)c(/C=C/Br)cn([C@H]2C[C@H](O)[C@@H](CO)O2)c1=O [Example 24, E-5-(2-Bromovinyl)-3-N-pivaloyl-2'-deoxyuridine] | 1100 nM | 0.46 µg/mL | > 100 µg/mL | 
O=C(C1CCCCC1)n1c(=O)c(/C=C/Br)cn([C@H]2C[C@H](O)[C@@H](CO)O2)c1=O [Example 25, E-5-(2-Bromovinyl)-3-N-cyclohexanecarbonyl-2^1-deoxyuridine] | 720 nM | 0.32 µg/mL | > 100 µg/mL | 
O=C(c1cccc(Cl)c1)n1c(=O)c(/C=C/Br)cn([C@H]2C[C@H](O)[C@@H](CO)O2)c1=O [Example 26, E-5-(2-Bromovinyl)-3-N-(3-chlorobenzoyl)-2^1-deoxyuridine] | 530 nM | 0.25 µg/mL | > 100 µg/mL | 
CCCN(CCC)S(=O)(=O)c1ccc(C(=O)OC[C@H]2O[C@@H](n3cc(/C=C/Br)c(=O)[nH]c3=O)C[C@@H]2O)cc1 [Example 29, E-5-(2-Bromovinyl)-5'-p-(dipropylsulphamoyl)benzoyl-2'-deoxyuridine] | 1870 nM | 1.12 µg/mL | > 100 µg/mL | 
CCCN(CCC)S(=O)(=O)c1ccc(C(=O)n2c(=O)c(/C=C/Br)cn([C@H]3C[C@H](O)[C@@H](CO)O3)c2=O)cc1 [Example 30, E-5-(2-Bromovinyl)-3-[4-(N,N-di-n-propylsulphamoyl)benzoyl]-2'-deoxyuridine] | 180 nM | 0.11 µg/mL | > 100 µg/mL | 
O=C(OC[C@H]1O[C@@H](n2cc(/C=C/Br)c(=O)[nH]c2=O)C[C@@H]1OC(=O)c1ccc([N+](=O)[O-])cc1)c1ccc([N+](=O)[O-])cc1 [Example 31, E-5-(2-bromovinyl)-3',5'-di-O(4-nitrobenzoyl)-2-deoxy-uridine] |  |  | > 100 µg/mL | 20 µg/mL and 32 µM
O=C(OC[C@H]1O[C@@H](n2cc(/C=C/Br)c(=O)[nH]c2=O)C[C@@H]1O)c1ccc([N+](=O)[O-])cc1 [Example 32, E-5-(2-Bromovinyl)-5' -O-(4-nitrobenzoyl)-2'-deoxyuridine] | 2000 nM | 0.95 µg/mL | > 100 µg/mL | 
O=C(OC[C@H]1O[C@@H](n2cc(/C=C/Br)c(=O)[nH]c2=O)C[C@@H]1OC(=O)c1ccc(Cl)c(Cl)c1)c1ccc(Cl)c(Cl)c1 [Example 33, E-5-(2-bromovinyl)-3',5'-di-O-(3,4-dichlorobenzoyl)-2'-deoxyuridine] | 147000 nM | 100 µg/mL | > 100 µg/mL | 
O=C(O[C@H]1C[C@H](n2cc(/C=C/Br)c(=O)[nH]c2=O)O[C@@H]1CO)c1ccc(Cl)c(Cl)c1 [Example 34, E-5-(2-bromovinyl)-3'-O-(3,4-dichlorobenzoyl)-2'-deoxyuridine] | 2300 nM | 1.2 µg/mL | > 100 µg/mL | 
O=C(OC[C@H]1O[C@@H](n2cc(/C=C/Br)c(=O)[nH]c2=O)C[C@@H]1O)c1ccc(Cl)c(Cl)c1 [Example 35, E-5-(2-Bromovinyl)-5' -O-(3 ,4-dichlorobenzoyl)-2'-deoxyuridine] | 2800 nM | 1.4 µg/mL | > 100 µg/mL | 
Cc1ccc(C(=O)O[C@H]2C[C@H](n3cc(/C=C/Br)c(=O)[nH]c3=O)O[C@@H]2CO)cc1 [Example 37, E-5-(2-bromovinyl)-3'-O-(4-methylbenzoyl)-2'-deoxyuridine] | 1400 nM | 0.63 µg/mL | > 100 µg/mL | 
Cc1ccc(C(=O)OC[C@H]2O[C@@H](n3cc(/C=C/Br)c(=O)[nH]c3=O)C[C@@H]2O)cc1 [Example 38, E-5-(2-Bromovinyl)-5'-O-(4-methylbenzoyl)-2' -deoxyuridine] | 1700 nM | 0.78 µg/mL | > 100 µg/mL | 
CCCCc1ccc(C(=O)OC[C@H]2O[C@@H](n3cc(/C=C/Br)c(=O)[nH]c3=O)C[C@@H]2O)cc1 [Example 40, E-5-(2-bromovinyl)-5'-0-(4-n-butylbenzoyl)-2'-deoxyuridine] | 12000 nM | 6.1 µg/mL | > 100 µg/mL | 
CN(C)c1ccc(C(=O)O[C@H]2C[C@H](n3cc(/C=C/Br)c(=O)[nH]c3=O)O[C@@H]2CO)cc1 [Example 42, E-5-{2-bromovinyl)-3'-O-(4-N,N-dimethylaminobenzoyl)-2'-deoxyuridine] | 1400 nM | 0.63 µg/mL | > 100 µg/mL | 
CN(C)c1ccc(C(=O)O[C@H]2C[C@H](n3cc(/C=C/Br)c(=O)n(C(=O)c4ccc(N(C)C)cc4)c3=O)O[C@@H]2CO)cc1 [Example 48, E-5-(2-Bromovinyl)-3-N-(p-dimethylaminobenzoyl)-3'-O-(p-dimethylaminobenzoyl)-2'-deoxyuridine] | 940 nM | 0.47 µg/mL | > 100 µg/mL | 
Cc1ccccc1C(=O)O[C@H]1C[C@H](n2cc(/C=C/Br)c(=O)n(C(=O)c3ccccc3C)c2=O)O[C@@H]1CO [Example 49] | 1100 nM | 0.55 µg/mL | 100 µg/mL | 
